Measurements taken from patent US7794994B2 (Kemeta, LLC, priority 2001, dated 2010).

Assays:
[1] = biological target: T1, acetone carboxylase coupled to β-hydroxybutyrate dehydrogenase (Xanthobacter versatilis, UniProt Q8RM03+Q8RM04); assay: Acetone carboxylase coupled to NADH oxidation spectrophotometric assay; type: biochemical, X. autotrophicus strain Py2; conditions: for activity as substrate and inhibition of acetone carboxylation activity: alternative compounds in coupled enzyme system
T1 construct: host or cells: X. autotrophicus strain Py2 (native organism; enzyme obtained from Prof; S. A. Ensign / purified as previously published)
T1 sequence (Q8RM03 1-776): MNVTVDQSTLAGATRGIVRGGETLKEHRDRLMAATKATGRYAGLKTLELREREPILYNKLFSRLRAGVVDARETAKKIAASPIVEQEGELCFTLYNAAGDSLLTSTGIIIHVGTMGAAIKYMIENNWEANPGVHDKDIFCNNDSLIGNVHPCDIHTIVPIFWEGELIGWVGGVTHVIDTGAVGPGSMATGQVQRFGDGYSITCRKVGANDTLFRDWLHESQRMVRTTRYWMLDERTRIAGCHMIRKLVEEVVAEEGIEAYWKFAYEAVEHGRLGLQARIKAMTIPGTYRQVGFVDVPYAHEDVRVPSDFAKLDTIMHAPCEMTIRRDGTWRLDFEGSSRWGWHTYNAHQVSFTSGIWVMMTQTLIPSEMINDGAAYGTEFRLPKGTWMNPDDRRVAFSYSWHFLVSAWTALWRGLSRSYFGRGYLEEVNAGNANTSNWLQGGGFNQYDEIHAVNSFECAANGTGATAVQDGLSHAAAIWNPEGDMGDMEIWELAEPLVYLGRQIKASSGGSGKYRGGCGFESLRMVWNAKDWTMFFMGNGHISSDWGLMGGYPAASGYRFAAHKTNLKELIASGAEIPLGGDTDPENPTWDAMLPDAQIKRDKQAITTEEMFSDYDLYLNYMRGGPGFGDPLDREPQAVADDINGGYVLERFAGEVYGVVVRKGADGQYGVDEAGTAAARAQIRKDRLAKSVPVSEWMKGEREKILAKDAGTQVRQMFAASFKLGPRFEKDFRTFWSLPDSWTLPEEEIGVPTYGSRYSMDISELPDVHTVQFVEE
T1 sequence (Q8RM04 1-717): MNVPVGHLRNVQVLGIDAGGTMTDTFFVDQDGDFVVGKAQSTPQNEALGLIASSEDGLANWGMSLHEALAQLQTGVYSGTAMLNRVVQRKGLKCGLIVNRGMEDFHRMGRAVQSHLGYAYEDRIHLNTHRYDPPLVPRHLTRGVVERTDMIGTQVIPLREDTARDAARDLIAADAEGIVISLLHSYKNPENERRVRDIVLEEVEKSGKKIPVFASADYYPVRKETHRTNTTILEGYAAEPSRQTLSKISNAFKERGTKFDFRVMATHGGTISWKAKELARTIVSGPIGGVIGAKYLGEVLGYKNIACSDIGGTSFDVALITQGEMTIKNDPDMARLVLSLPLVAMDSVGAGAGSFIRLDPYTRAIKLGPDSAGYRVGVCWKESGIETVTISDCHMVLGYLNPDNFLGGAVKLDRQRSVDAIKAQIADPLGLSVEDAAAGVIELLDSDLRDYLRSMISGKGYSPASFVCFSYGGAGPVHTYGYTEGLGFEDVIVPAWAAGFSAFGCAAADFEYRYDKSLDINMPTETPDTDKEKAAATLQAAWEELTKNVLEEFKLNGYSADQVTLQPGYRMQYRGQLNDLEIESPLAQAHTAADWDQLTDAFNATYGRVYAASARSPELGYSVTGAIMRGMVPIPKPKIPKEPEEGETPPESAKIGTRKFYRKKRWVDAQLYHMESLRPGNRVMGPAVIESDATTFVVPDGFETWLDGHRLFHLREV
T1 sequence (Q8RM02 2-168 partner limits assumed): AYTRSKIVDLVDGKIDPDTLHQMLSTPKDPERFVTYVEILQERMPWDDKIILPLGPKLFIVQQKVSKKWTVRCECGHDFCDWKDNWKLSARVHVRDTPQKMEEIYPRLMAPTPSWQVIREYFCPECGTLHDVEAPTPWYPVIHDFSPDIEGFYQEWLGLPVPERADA
Method: Assays were performed in 2 mL (1 cm path length) quartz cuvettes that had been modified by fusing a serum bottle-style quartz top (7×13 mm at mouth), allowing the cuvettes to be sealed with a red rubber serum stopper. […] The addition of […] (3 U) and NADH (0.2 mM) allowed acetoacetate formation to be coupled to the oxidation of NADH. […] The reaction was monitored by measuring the decrease in absorbance at 340 nm (∈340 of 6.22 mM^−·cm^−1 for NADH) over time in an Agilent Technologies (Palo Alto, Calif.) model 8453 UV-Visible Spectroscopy System containing a thermostat-controlled cell holder at 30° C.

S-ADH from T. brockii = biological target: T2, S-ADH from T. brockii (Thermoanaerobacter brockii, UniProt P14941); assay: S-ADH spectrophotometric assay, T. brockii S-ADH; type: biochemical, Thermoanaerobium brockii; conditions: for Relative S-ADH Activity (%) T. brockii, alcohol oxidation: alcohol oxidation rates, pH 7.6, 2.5 mM substrate, 0.2 mM NADP+, 2-propanol = 100, NA = no activity detected; for Relative S-ADH Activity (%) T. brockii, ketone reduction: ketone reduction rates, pH 6.2, 2.5 mM substrate, 0.2 mM NADPH, acetone = 100
T2 sequence (P14941 1-352): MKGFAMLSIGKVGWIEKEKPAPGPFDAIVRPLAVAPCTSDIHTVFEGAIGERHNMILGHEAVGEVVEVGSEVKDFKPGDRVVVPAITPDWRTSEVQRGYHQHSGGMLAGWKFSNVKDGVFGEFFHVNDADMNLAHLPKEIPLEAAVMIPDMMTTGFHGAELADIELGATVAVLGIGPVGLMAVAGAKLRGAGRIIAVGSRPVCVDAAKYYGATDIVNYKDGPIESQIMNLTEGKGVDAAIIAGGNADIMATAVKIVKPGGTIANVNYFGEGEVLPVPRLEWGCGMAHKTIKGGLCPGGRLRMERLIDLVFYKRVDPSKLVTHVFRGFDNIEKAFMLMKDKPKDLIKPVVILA
Method: […] Assays were pre-incubated for 1.5 min. at 30° C. with all assay components except substrate. Assays were initiated by addition of substrate (2.5 mM) and monitored over time by measuring the change in absorbance at 340 nm (∈340 of 6.22 mM^−1·cm^−1 for NADH).

[2] = tested on: 3-enzyme system (S-ADH coupled to lactate dehydrogenase and pyruvate oxidase); assay: S-ADH coupled to H2O2 formation electrochemical assay (3-enzyme system), interference compounds; type: biochemical, X. autotrophicus Py2; conditions: for interference with the acetone measurement (current response): Acetone plus 10 mM ethanol, 50 μM isopropanol or 50 μM isobutanol, data not shown
Method: Secondary alcohol dehydrogenase coupled to H2O2 formation electrochemical assay. […] Before measurements the electrode surface was polished using Al2O3 paste for 1 min. and then rinsed with deionized water, sonicated for 1 min. and rinsed with water again. The polished Pt electrode was then pretreated electrochemically by applying 10 cycles of 100 mV/s from +200 mV to +900 mV. All potentials were referenced versus a Ag/AgCl electrode (BAS part number MF-2078). Assays contained potassium phosphate (100 mM, pH 7.2), purified S-ADH (1 U/mL), NADH (201 μM), lactate (100 mM), lactate dehydrogenase (5 U/mL), pyruvate oxidase (4 U/mL), flavin adenine dinucleotide (0.01 mM), cocarboxylase (0.2 mM), in a total volume of 0.5 mL. […] After a 2 min. incubation period, the potential was stepped from open circuit to 350 mV.

With `CCCO` [1-Propanol] the “activity as substrate and inhibition of acetone carboxylation activity” value (shortened to “activity as substrate and inhibition”) [1] was “not active nor did they inhibit acetone carboxylation activity”.

In the case of `CCC(C)O` (stereo not drawn) [2-Butanol], the “Relative S-ADH Activity (%) T. brockii, alcohol oxidation” value (S-ADH from T. brockii) is reported as 121% and the “activity as substrate and inhibition” value [1] is reported as “not active nor did they inhibit acetone carboxylation activity”.

In the case of `CCC(C)=O` [2-Butanone], the “Relative S-ADH Activity (%) T. brockii, ketone reduction” value (S-ADH from T. brockii) is reported as 67%, the “current response relative to acetone” value ([2]; 50 μM butanone) is reported as “equivalent to 50 μM acetone” and the “rate relative to acetone using the coupled enzyme system” value [1] is reported as 3 to 4%.

`CC(C)O` [2-Propanol] was tested, and the “Relative S-ADH Activity (%) T. brockii, alcohol oxidation” value (S-ADH from T. brockii) was 100%, the “interference with the acetone measurement (current response)” value [2] was “do not interfere” and the “activity as substrate and inhibition” value [1] was “not active nor did they inhibit acetone carboxylation activity”.

For `CC(C)=O` [Acetone, acetone], the “Relative S-ADH Activity (%) T. brockii, ketone reduction” value (S-ADH from T. brockii) was 100%.

For `CCO` [Ethanol], the “interference with the acetone measurement (current response)” value [2] was “do not interfere” and the “effect on rate of NADH oxidation (inhibition)” value ([1]; addition of ethanol (10 mM)) was “no decrease in the rate was observed”.
